Data from US20230095021A1, “MODULATORS OF TDP-43” (Alteron Therapeutics, Inc., priority 2019, published 2023).

Experiments:
[1] = tested on: MAP2; test: MAP2 expression, Western blot in U-87 MG cells; type: cell-based; details: 2 days
Procedure: (§1) U-87 MG and T98G cells were maintained at 37° C. in a CO2 incubator in Dulbecco's Modified Eagle's Medium (DMEM) supplemented with 10% fetal bovine serum (FBS) and 1% of penicillin/streptomycin (Invitrogen). Cells were treated with DMSO, 3 μM, or 6 μM ALT-59 for 2 days and subjected to Western blotting analysis using the indicated antibodies. Protein bands were quantified using the ImageJ software.

[2] = tested on: CFTR; test: CFTR protein levels, Western blot in U-87 MG cells; type: cell-based
Procedure: Additional experiments were performed to determine how ALT-59 treatment affects CFTR protein levels. U-87 MG cells were maintained at 37° C. in a CO2 incubator in Dulbecco's Modified Eagle's Medium (DMEM) supplemented with 10% fetal bovine serum (FBS) and 1% of penicillin/streptomycin (Invitrogen), and were treated with DMSO, 3 μM, or 6 μM ALT-59. Cells were lysed using RIPA buffer (25 mM Tris, pH 7.4, 150 mM NaCl, 0.1% SDS, 0.5% sodium deoxycholate, 1% Triton X-100, Complete protease inhibitor cocktail). Western blotting was performed using anti-CFTR (Novus Biologicals) and anti-beta-actin (Sigma-Aldrich) antibodies. Images were obtained using Odyssey imager and quantified using the Odyssey software (LI-COR).

[3] = biological target: T1, TDP-43 (Homo sapiens, UniProt Q13148); test: Solid phase compound-protein complex pull-down with mass spectrometry protein identification; type: binding; details: precipitated proteins from PLC/PRF/5 and MDA-MB-231 cell lysates
T1 construct: added to whole cell lysate containing 5 mg protein; endogenous in cells; host or cells: MDA-MB-231 and PLC/PRF/5 whole cell lysates
Procedure: MDA-MB-231 and PLC/PRF/5 cells were maintained at 37° C. in a CO2 incubator in Dulbecco's Modified Eagle's Medium (DMEM) supplemented with 10% fetal bovine serum (FBS) and 1% of penicillin/streptomycin (Invitrogen).
The cells were lysed in lysis buffer containing 20 mM 4-(2-hydroxyethyl)-1-piperazineethanesulfonic acid (HEPES), pH 7.5, 0.3% 3-[(3-cholamidopropyl)dimethylammonio]-1-propanesulfonate (CHAPS), 150 mM NaCl, (Sigma-Aldrich), and protease inhibitor cocktail (Roche) with rotation at 4° C. for one hour followed by centrifugation at 15000 for 20 minutes. Ten milligrams of ALT-59 dissolved in DMSO at 20 mM were added to whole cell lysate containing 5 mg protein and incubated on ice for one hour. Compound precipitates out due to high hydrophobicity. Compound-protein complex were spun down at 1000 rpm and washed 5 times with lysis buffer to remove unbound protein. The compound-protein complex were boiled in SDS-PAGE protein sample buffer (1×) (80 mM Tris-HCl, pH 6.8, 2% SDS, 10% Glycerol, 0.1% Bromophenol blue.
For silver staining, proteins were separated on a 10% SDS-PAGE gel. To prepare samples for protein identification using mass spectrometry, protein samples were run into stacking gel and the electrophoresis was stopped after samples were compressed into single bands. […]

[4] = tested on: CFTR exon 9; test: CFTR exon 9 splicing, RT-PCR; type: cell-based; details: MDA-MB-231 cells
Procedure: Long stretches of TG repeats are found in exon 9 and intron 9 of Lamp2 gene. A shorter stretch is located in intron 10. […] RT-PCR analysis was performed to test if ALT-59 treatment affects LAMP2 alternative splicing. MDA-MB-231 cells were cultured as described above and treated with DMSO or 6 μM ALT-59. Total RNA was extracted using the RNeasy Mini Kit (Qiagen) and equal amount of RNA was reverse transcribed using the SuperScript III First-Strand Synthesis System (Invitrogen). PCR reactions were performed using forward primer located on exon 1 and a reverse primer located on exon 11. PCR samples were resolved in a 1.2% agarose gel and stained with ethidium bromide.
It has been reported that TDP-43 causes CFTR exon 9 skipping, ApoA2 exon 3 skipping, and POLDIP3 exon 3 inclusion. Additional experiments were performed to further confirm that TDP-43 is the target of ALT-59. RT-PCR analysis was performed as described above using the following primers for the three genes. PCR samples were analyzed by polyacrylamide gel electrophoresis and stained with ethidium bromide.

[5] = tested on: Beta-secretase 1 (BACE1); test: BACE1 protein level, Western blot in U-87 MG cells; type: cell-based; details: 2 days
Procedure: as §1

[6] = tested on: BACE1; test: Screening for ALT-59 derivatives with BACE1 protein levels as indicator, U-87 MG cells; type: cell-based; details: 2 days, concentrations as indicated in FIGS. 15-17
Procedure: Additional experiments were performed to screen for compounds with higher potency and the ability to penetrate blood brain barrier using BACE1 protein levels as an indicator. U-87 MG cells were cultured as described previously and treated for 2 days with compounds at concentrations as indicated in FIGS. 15-17. Cells were then subjected to Western blotting analysis using anti-BACE1 and anti-beta-actin antibodies.

[7] = tested on: CFTR; test: CFTR localization, immunofluorescence microscopy, U-87 MG cells; type: cell-based; details: 4 μM, 3 days
Procedure: MDA-MB-231 and U-87 MG cells were cultured on cover slips under the conditions as described above. Cells were treated with DMSO or 4 μM ALT-59 for 3 days. Primary human bronchial epithelial cells isolated from cystic fibrosis patient homozygous for Phe508del-CFTR (Lifeline Cell Technology) were cultured on cover slips in BronchiaLife Cell Culture Medium supplemented with BrochiaLife LifeFactors Kit (Lifeline Cell Technology) and maintained at 37° C. in a CO2 incubator. Cells were treated with DMSO, 4 μM ALT-59, 2 μM ALT-308, or 4 μM ALT-410 for 3 days.
Cells were fixed in 4% paraformaldehyde for 15 minutes and permeabilized in 0.1% Triton X-100 for 2 minutes. After being blocked in 5% BSA (Sigma-Aldrich), cells were incubated with anti-CFTR antibody (Alomone Labs) followed by Alexa Fluor 488 anti-rabbit secondary antibody. Reagents were buffered in GIBCO PBS (Phosphate-Buffered Saline). Images were taken using Carl Zeiss LSM 510 Laser Scanning Microscope. Parameters were set identical for all images.

T1 sequence (Q13148 whole entry): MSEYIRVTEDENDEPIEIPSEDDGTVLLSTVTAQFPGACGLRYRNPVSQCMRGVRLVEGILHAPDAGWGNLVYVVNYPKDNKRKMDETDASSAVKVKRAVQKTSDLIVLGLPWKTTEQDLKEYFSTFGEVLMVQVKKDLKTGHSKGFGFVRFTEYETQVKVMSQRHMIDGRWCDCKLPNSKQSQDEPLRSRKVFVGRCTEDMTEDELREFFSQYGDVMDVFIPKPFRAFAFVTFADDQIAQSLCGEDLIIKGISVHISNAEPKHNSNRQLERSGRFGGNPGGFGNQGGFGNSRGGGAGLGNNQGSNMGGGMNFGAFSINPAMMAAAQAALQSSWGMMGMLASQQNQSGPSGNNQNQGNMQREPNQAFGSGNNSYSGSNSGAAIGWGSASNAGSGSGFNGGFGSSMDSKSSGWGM

Question: For `CN(C)c1ccc(C2Nc3ccc4ccccc4c3C3=C2C(=O)CC(C)(C)C3)cc1Br` (stereo not shown) [ALT-59, 5-(3-bromo-4-(dimethylamino)phenyl)-2,2-dimethyl-2,3,5,6-tetrahydrobenzo[a]phenanthridin-4(1H)-one], which “increase of MAP2 expression” value ([1]; 3 μM) is on record?
Answer: 1.42 folds

Question: And the “increase of MAP2 expression” value ([1]; 6 μM)?
Answer: 2.51 folds

Question: And the “increase of CFTR300 level” value ([2]; 3 μM)?
Answer: 10 fold

Question: What about the “level of CFTR160” value ([2]; 3 μM) of the same compound?
Answer: did not affect

Question: And the “increase of CFTR160 level” value ([2]; 6 μM)?
Answer: 30%

Question: What about the “increase of CFTR240 level” value ([2]; 6 μM) of the same compound?
Answer: 3 fold

Question: What about the “increase of CFTR300 level” value ([2]; 6 μM) of the same compound?
Answer: 18 fold

Question: And the “ALT-59 binding proteins identified by mass spectrometry” value [3]?
Answer: TDP-43 (boxed) was ranked as the top hit

Question: What about the “CFTR exon 9 inclusion” value [4] of the same compound?
Answer: capable of promoting CFTR exon 9 inclusion

Question: And the “reduction of BACE1 protein level” value ([5]; 3 μM)?
Answer: 20%

Question: What about the “reduction of BACE1 protein level” value ([5]; 6 μM) of the same compound?
Answer: 50%

Question: And the BACE1 protein expression [6]?
Answer: capable of lowering BACE1 expression

Question: What about the CFTR localization [7] of the same compound?
Answer: redistribution of CFTR from the perinuclear region to the plasma membrane
